Measurements: patent US20160101148A1, “TREATMENT AND PREVENTION OF BACTERIAL SKIN INFECTIONS USING ORITAVANCIN” (priority 2013, published 2016)
≈ marks a conversion by molar mass, not a printed value. Marks after values point to notes of the source that are not given here.

Columns and labels:
[1] = SOLO II Phase 3 trial, safety; type: in vivo, human
Excerpt: Safety profiles, measured at any point up to 60 days after treatment, were similar across treatment groups in SOLO II.

[2] = tested on: S. aureus strains (14 mecC MRSA, 2 mecA MRSA, ATCC 29213 MSSA); assay: Broth microdilution MIC determination; type: cell-based, Staphylococcus aureus
Experimental: The S. aureus (SA) strains used in this study were: ATCC 43300 (mecA methicillin-resistant SA [MRSA]); ATCC 33591 (mecA MRSA), ATCC 29213 (methicillin-susceptible SA; quality control strain) and 14 mecC MRSA obtained from the Staten Serum Institute (Copenhagen, Denmark).
Tests with oritavancin included polysorbate-80 (final test concentration of 0.002%) as described (CLSI 2012a; Arhin et al., 2008). Tests with daptomycin included CaCl2 at a concentration of 50 mg/L. MICs were read after 24 h incubation.

[3] = cited from earlier work
[4] = Predicted free peak and free trough levels in plasma; type: in vivo; settings: non-protein bound drug, representative human dose: oritavancin 1200 mg, vancomycin 1000 mg, daptomycin 4 mg/kg, linezolid 500 mg
Experimental: ORI concentrations were chosen to approximate free peak (fCmax; defined as the peak concentration of non-protein bound drug) and free trough (fCmin; defined for ORI as the concentration of non-protein bound drug at 24 h) levels in plasma following administration of a 1200 mg dose (Belley et al., 2013 Table 10). ORI protein binding is estimated at approximately 85% in serum from nonclinical species and humans (Arhin et al., 2010). Doubling dilution concentrations of comparator agents were likewise chosen to approximate their fCmax and fCmin levels in plasma when administered at approved dosages for complicated skin and skin structure infections, using pharmacokinetic data and protein binding values from their respective package inserts (DAP [Cubicin®]; LZD [Zyvox®]; VAN [Vancocin®]; Table 3).

[5] = tested on: ABSSSI caused by susceptible gram-positive bacteria, including MRSA; assay: SOLO I and SOLO II combined, efficacy; type: in vivo, human; settings: for FDA primary endpoint: Cessation of spread, absence of fever, no rescue antibiotics / ≧20% reduction of lesion area / FDA primary endpoint: Cessation of spread, absence of fever, no rescue antibiotics, number of patients / ≧20% reduction of lesion area, number of patients / % Difference (95% CI), FDA primary endpoint / % Difference (95% CI), ≧20% reduction of lesion area / EMA primary endpoint: Investigator-assessed clinical cure / EMA primary endpoint: Investigator-assessed clinical cure, number of patients / % Difference (95% CI), investigator-assessed clinical cure: SOLO I and SOLO II combined; for FDA primary endpoint: Cessation of spread, absence of fever, no rescue antibiotics / ≧20% reduction of lesion area / FDA primary endpoint: Cessation of spread, absence of fever, no rescue antibiotics, number of patients / ≧20% reduction of lesion area, number of patients / % Difference (95% CI), FDA primary endpoint / % Difference (95% CI), ≧20% reduction of lesion area: ECE; for % Difference (95% CI), FDA primary endpoint / % Difference (95% CI), ≧20% reduction of lesion area / % Difference (95% CI), investigator-assessed clinical cure: oritavancin vs vancomycin; for EMA primary endpoint: Investigator-assessed clinical cure / EMA primary endpoint: Investigator-assessed clinical cure, number of patients / % Difference (95% CI), investigator-assessed clinical cure: PTE
Excerpt: (§1) Complete results were obtained from a phase 3 clinical trial program of oritavancin (SOLO), which investigated the drug for the treatment of acute bacterial skin and skin structure infections (ABSSSI) caused by susceptible gram-positive bacteria, including methicillin-resistant Staphylococcus aureus (MRSA). SOLO I and SOLO II clinical trials were identical multicenter, double-blind, randomized clinical trials.
In microbiologically confirmed MRSA patients, efficacy was similar in both treatment groups; however, a higher proportion of MRSA-infected patients in the oritavancin group achieved the endpoint of greater than or equal to 20% reduction of lesion area at ECE (p value=0.032). Under the Special Protocol Assessment (SPA) agreed with the FDA, the protocols pre-specified that MRSA patients from the SOLO studies would be pooled for the evaluation of efficacy.
The combined SOLO studies represented 1,987 patients in an intent-to-treat population for evaluation of oritavancin in the treatment of ABSSSI in controlled clinical trials and assessed one of the largest subsets of patients with documented MRSA infection (405 patients).

[6] = tested on: ABSSSI caused by susceptible gram-positive bacteria, including MRSA; assay: SOLO II Phase 3 trial, efficacy; type: in vivo, human
Excerpt: as §1
In SOLO II, all protocol-specified primary and secondary efficacy endpoints were met. […] The efficacy was similar in the overall population and in those patients with microbiologically confirmed MRSA infections.

[7] = SOLO I and SOLO II combined, safety; type: in vivo, human
[8] = confirmed MRSA, MicroITT, oritavancin n = 204, vancomycin n = 201
[9] = mITT, oritavancin n = 978, vancomycin n = 981
[10] = confirmed MRSA, Microbiological ITT, ECE
[11] = confirmed MRSA, Microbiological ITT, ECE, oritavancin n = 100, vancomycin n = 101
[12] = mITT, ECE, oritavancin n = 503, vancomycin n = 502
[13] = mITT, ECE, oritavancin vs vancomycin

SMILES: CN[C@H](CC(C)C)C(=O)N[C@H]1C(=O)N[C@@H](CC(N)=O)C(=O)N[C@H]2C(=O)N[C@H]3C(=O)N[C@H](C(=O)N[C@H](C(=O)O)c4cc(O)cc(O)c4-c4cc3ccc4O)[C@H](O[C@H]3C[C@](C)(N)[C@@H](O)[C@H](C)O3)c3ccc(c(Cl)c3)Oc3cc2cc(c3O[C@@H]2O[C@H](CO)[C@@H](O)[C@H](O)[C@H]2O[C@H]2C[C@](C)(NCc3ccc(-c4ccc(Cl)cc4)cc3)[C@@H](O)[C@H](C)O2)Oc2ccc(cc2Cl)[C@H]1O [Oritavancin, N^DISACC-(4-(4-chlorophenyl)benzyl)A82846B]
- Treatment emergent adverse events considered by investigators as related to study drug [1]: 21.7%
- Patients reported to experience at least one adverse event ([1]; up to 60 days after treatment): 50.9%
- MIC90 ([2]; Staphylococcus aureus): 0.06 µg/mL (≈ 0.0335 µM)
- MIC ([2]; Staphylococcus aureus, 57147 MRSA (mecC)): 0.03 µg/mL (≈ 0.0167 µM)
- MIC ([2]; Staphylococcus aureus, 70611 MRSA (mecC)): 0.06 µg/mL (≈ 0.0335 µM)
- MIC ([2]; Staphylococcus aureus, 73348 MRSA (mecC)): 0.06 µg/mL (≈ 0.0335 µM)
- MIC ([2]; Staphylococcus aureus, 73415 MRSA (mecC)): 0.06 µg/mL (≈ 0.0335 µM)
- MIC ([2]; Staphylococcus aureus, 73617 MRSA (mecC)): 0.03 µg/mL (≈ 0.0167 µM)
- MIC ([2]; Staphylococcus aureus, 73829 MRSA (mecC)): 0.03 µg/mL (≈ 0.0167 µM)
- MIC ([2]; Staphylococcus aureus, 75814 MRSA (mecC)): 0.06 µg/mL (≈ 0.0335 µM)
- MIC ([2]; Staphylococcus aureus, 76918 MRSA (mecC)): 0.03 µg/mL (≈ 0.0167 µM)
- MIC ([2]; Staphylococcus aureus, 77431 MRSA (mecC)): 0.03 µg/mL (≈ 0.0167 µM)
- MIC ([2]; Staphylococcus aureus, 77601 MRSA (mecC)): 0.03 µg/mL (≈ 0.0167 µM)
- MIC ([2]; Staphylococcus aureus, 77950 MRSA (mecC)): 0.03 µg/mL (≈ 0.0167 µM)
- MIC ([2]; Staphylococcus aureus, 77964 MRSA (mecC)): 0.06 µg/mL (≈ 0.0335 µM)
- MIC ([2]; Staphylococcus aureus, 78085 MRSA (mecC)): 0.06 µg/mL (≈ 0.0335 µM)
- MIC ([2]; Staphylococcus aureus, 78651 MRSA (mecC)): 0.06 µg/mL (≈ 0.0335 µM)
- MIC ([2]; Staphylococcus aureus, ATCC 29213 (MSSA)): 0.06 µg/mL (≈ 0.0335 µM)
- MIC ([2]; Staphylococcus aureus, ATCC 29213 / ATCC 33591 / MRSA / MSSA, ATCC 33591 MRSA (mecA)): 0.06 µg/mL (≈ 0.0335 µM)
- MIC ([2]; Staphylococcus aureus, ATCC 29213 / ATCC 43300 / MRSA / MSSA, ATCC 43300 MRSA (mecA)): 0.06 µg/mL (≈ 0.0335 µM)
- MIC ([2]; Staphylococcus aureus, QC and mecA strains): 0.06 µg/mL (≈ 0.0335 µM)
- MIC range ([2]; mecC strains): 0.03 to 0.06 µg/mL
- Free Fraction ([3]; protein binding values from Arhin et al., 2010 (oritavancin) and package inserts (comparators)): 0.15
- Protein binding ([3]; serum from nonclinical species and humans (Arhin et al., 2010)): approximately 85%
- Doubling Dilution Concentration Representing Predicted fCmax [4]: 16 mg/L
- FDA primary endpoint: Cessation of spread, absence of fever, no rescue antibiotics ([5]; confirmed MRSA, MicroITT): 81.4%
- ≧20% reduction of lesion area ([5]; confirmed MRSA, MicroITT): 93.1%
- FDA primary endpoint: Cessation of spread, absence of fever, no rescue antibiotics, number of patients [5, 8]: 166
- ≧20% reduction of lesion area, number of patients [5, 8]: 190
- % Difference (95% CI), FDA primary endpoint ([5]; confirmed MRSA, MicroITT): 0.8 (−6.9, 8.4) %
- % Difference (95% CI), ≧20% reduction of lesion area ([5]; confirmed MRSA, MicroITT, p value = 0.032): 6.1 (0.5, 11.6)* %
- EMA primary endpoint: Investigator-assessed clinical cure ([5]; confirmed MRSA, MicroITT): 83.3%
- EMA primary endpoint: Investigator-assessed clinical cure, number of patients [5, 8]: 170
- % Difference (95% CI), investigator-assessed clinical cure ([5]; confirmed MRSA, MicroITT): −0.7 (−7.9, 6.4) %
- FDA primary endpoint: Cessation of spread, absence of fever, no rescue antibiotics ([5]; mITT): 81.2%
- ≧20% reduction of lesion area ([5]; mITT): 86.4%
- FDA primary endpoint: Cessation of spread, absence of fever, no rescue antibiotics, number of patients [5, 9]: 794
- ≧20% reduction of lesion area, number of patients [5, 9]: 845
- % Difference (95% CI), FDA primary endpoint ([5]; mITT): 0.2 (−3.3, 3.7) %
- % Difference (95% CI), ≧20% reduction of lesion area ([5]; mITT): 2.3 (−0.9, 5.4) %
- EMA primary endpoint: Investigator-assessed clinical cure ([5]; mITT): 81.2%
- EMA primary endpoint: Investigator-assessed clinical cure, number of patients [5, 9]: 794
- % Difference (95% CI), investigator-assessed clinical cure ([5]; mITT): 1.0 (−2.5, 4.5) %
- Efficacy versus vancomycin for ECE and PTE endpoints ([5]; combined SOLO trials): non-inferior to vancomycin
- Efficacy versus vancomycin for ECE and PTE endpoints [6]: non-inferior to vancomycin
- FDA primary endpoint: Cessation of spread, absence of fever, no rescue antibiotics [6, 10]: 82.0%
- ≧20% reduction of lesion area [6, 10]: 96.0%
- FDA primary endpoint: Cessation of spread, absence of fever, no rescue antibiotics, number of patients [6, 11]: 82
- ≧20% reduction of lesion area, number of patients [6, 11]: 96
- EMA primary endpoint: Investigator-assessed clinical cure ([6]; confirmed MRSA, Microbiological ITT, PTE): 84.0%
- EMA primary endpoint: Investigator-assessed clinical cure, number of patients ([6]; confirmed MRSA, Microbiological ITT, PTE, oritavancin n = 100, vancomycin n = 101): 84
- FDA primary endpoint: Cessation of spread, absence of fever, no rescue antibiotics ([6]; mITT, ECE): 80.1%
- ≧20% reduction of lesion area ([6]; mITT, ECE): 85.9%
- FDA primary endpoint: Cessation of spread, absence of fever, no rescue antibiotics, number of patients [6, 12]: 403
- ≧20% reduction of lesion area, number of patients [6, 12]: 432
- % Difference (95% CI), FDA primary endpoint [6, 13]: −2.7 (−7.5, 2.0) %
- % Difference (95% CI), ≧20% reduction of lesion area [6, 13]: 0.6 (−3.7, 5.0) %
- EMA primary endpoint: Investigator-assessed clinical cure ([6]; mITT, PTE): 82.7%
- EMA primary endpoint: Investigator-assessed clinical cure, number of patients ([6]; mITT, PTE, oritavancin n = 503, vancomycin n = 502): 416
- % Difference (95% CI), investigator-assessed clinical cure ([6]; mITT, PTE, oritavancin vs vancomycin): 2.2 (−2.6, 7.0) %
- Patients with adverse events leading to study drug discontinuation [7]: 3.7%
- Treatment emergent adverse events considered by investigators as related to study drug ([7]; p=0.002): 22.2%
- Patients reported to experience at least one adverse event ([7]; safety population): 55.3%
